Test results taken from patent US8518931B2, “Compounds and compositions as kinase inhibitors” (IRM LLC, priority 2008, dated 2013).

target: T1, NPM-ALK (Homo sapiens, UniProt Q9UM73); test: NPM-ALK BaF3 assay (growth inhibition of BaF3-NPM-ALK cells); format: cell-based; details: human NPM-ALK overexpressing murine BaF3 cells
T1 construct: nucleophosmin (NPM, NPM1; human P06748) fusion partner; expressed in transfected cells; host or cells: murine BaF3 cells (DSMZ), transfected with pCIneo (Promega) coding for NPM-ALK and selected with G418; the other entry of the earlier key: Npm1 (Q61937, Nucleophosmin)
From the text: The expression of NPM-ALK may be achieved by transfecting the BaF3 cell line with an expression vector pClneo™ (Promega Corp., Madison Wis., USA) coding for NPM-ALK and subsequent selection of G418 resistant cells. Non-transfected BaF3 cells depend on IL-3 for cell survival. In contrast, NPM-ALK expressing BaF3 cells (named BaF3-NPM-ALK hereinafter) can proliferate in the absence of IL-3 because they obtain proliferative signal through NPM-ALK kinase. Putative inhibitors of the NPM-ALK kinase therefore abolish the growth signal and may result in antiproliferative activity. The antiproliferative activity of putative inhibitors of the NPM-ALK kinase can however be overcome by addition of IL-3, which provides growth signals through an NPM-ALK independent mechanism. An analogous cell system using FLT3 kinase has also been described (see, E Weisberg et al. Cancer Cell; 1, 433-443 (2002)).
The inhibitory activity of the compounds of the invention may be determined as follows. In general, BaF3-NPM-ALK cells (15,000/microtitre plate well) are transferred to 96-well microtitre plates. Test compounds dissolved in dimethyl sulfoxide (DMSO) are added in a series of concentrations (dilution series) in such a manner that the final concentration of DMSO is not greater than 1% (v/v). After the addition, the plates are incubated for two days during which the control cultures without test compound are able to undergo two cell-division cycles. The growth of the BaF3-NPM-ALK cells is measured by means of YOPRO™ staining [T Idziorek et al. J. Immunol. Methods; 185: 249-258 (1995)]: 25 μl of lysis buffer comprising 20 mM sodium citrate, pH 4.0, 26.8 mM sodium chloride, 0.4% NP40, 20 mM EDTA and […] to each well. Cell lysis is completed within 60 min at room temperature and total amount of YOPRO™ bound to DNA is determined by measurement using the Cytofluor II 96-well reader (PerSeptive Biosystems) with the following settings: Excitation (nm) 485/20 and Emission (nm) 530/25.
IC50 values may be determined by a computer-aided system using the formula: IC50=[(ABStest−ABSstart)/(ABScontrol−ABSstart)]×100·(ABS=absorption)
In general, compounds of the invention have IC50 values from 1 nM to 10 μM. In some examples, compounds of the invention have IC50 values from 0.01 μM to 5 μM. In other examples, compounds of the invention have IC50 values from 0.01 μM to 1 μM, or more particularly from 1 nM to 1 μM.
Table 1 describes representative compounds of the invention, prepared following the procedures described above. IC50 values are as measured in an NPM-ALK BaF3 assay.

T1 sequence (Q9UM73 with tags, fused parts or gaps): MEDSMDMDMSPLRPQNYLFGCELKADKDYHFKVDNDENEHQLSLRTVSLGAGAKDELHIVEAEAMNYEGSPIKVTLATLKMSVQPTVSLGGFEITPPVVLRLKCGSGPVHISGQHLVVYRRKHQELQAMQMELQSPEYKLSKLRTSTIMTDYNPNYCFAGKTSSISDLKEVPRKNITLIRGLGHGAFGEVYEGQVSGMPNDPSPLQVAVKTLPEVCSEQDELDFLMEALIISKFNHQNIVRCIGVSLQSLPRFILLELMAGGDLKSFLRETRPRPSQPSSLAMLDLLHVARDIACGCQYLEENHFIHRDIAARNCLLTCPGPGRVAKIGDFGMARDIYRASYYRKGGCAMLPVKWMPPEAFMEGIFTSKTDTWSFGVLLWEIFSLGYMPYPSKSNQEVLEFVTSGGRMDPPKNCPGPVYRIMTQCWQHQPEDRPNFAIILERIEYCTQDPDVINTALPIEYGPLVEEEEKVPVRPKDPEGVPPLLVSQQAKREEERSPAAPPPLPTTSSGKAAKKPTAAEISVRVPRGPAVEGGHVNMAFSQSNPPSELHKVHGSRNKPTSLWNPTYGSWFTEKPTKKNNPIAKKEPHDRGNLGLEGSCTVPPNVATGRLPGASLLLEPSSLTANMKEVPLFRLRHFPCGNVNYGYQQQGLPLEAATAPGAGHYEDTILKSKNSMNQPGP

SMILES | IC50
COc1cc(C2CCN(C(=O)CN3CCCCC3)CC2)c(C)cc1Nc1nc(Nc2ccccc2S(=O)(=O)C(C)C)n2nccc2n1 [Ex 14] | 26 nM
COc1cc(C2CCN(C(=O)C3CCCCN3)CC2)c(C)cc1Nc1nc(Nc2ccccc2S(=O)(=O)C(C)C)n2nccc2n1 (stereo not shown) [Ex 29] | 54 nM
COc1cc(C2CCN(C(=O)[C@@H](C)N(C)CCO)CC2)c(C)cc1Nc1nc(Nc2ccccc2S(=O)(=O)C(C)C)n2nccc2n1 [Ex 98] | 13 nM
COc1cc(C2CCN(C(=O)CNCCO)CC2)c(C)cc1Nc1nc(Nc2ccccc2S(=O)(=O)C(C)C)n2nccc2n1 [Ex 58] | 86 nM
COc1cc(C2CCN(C(=O)CNC(C)C)CC2)c(C)cc1Nc1nc(Nc2ccccc2S(=O)(=O)C(C)C)n2nccc2n1 [Ex 57] | 32 nM
COc1cc(C2CCN(C(=O)CNC[C@@H](O)CO)CC2)c(C)cc1Nc1nc(Nc2ccccc2S(=O)(=O)C(C)C)n2nccc2n1 [Ex 43] | 150 nM
CC(C)S(=O)(=O)c1ccccc1Nc1nc(Nc2ccc(C3CCN(C(=O)CN4CCC4)CC3)cc2)nc2ccnn12 [Ex 93] | 132 nM
COc1cc(C2CCN(C(=O)[C@H](N)CO)CC2)c(C)cc1Nc1nc(Nc2ccccc2S(=O)(=O)C(C)C)n2nccc2n1 [Ex 86] | 34 nM
CCN(CC)CC(=O)N1CCC(c2cc(OC)c(Nc3nc(Nc4ccccc4S(=O)(=O)C(C)C)n4nccc4n3)cc2C)CC1 [Ex 110] | 16 nM
COc1cc(C2CCN(CC(N)=O)CC2)c(C)cc1Nc1nc(Nc2ccccc2S(=O)(=O)C(C)C)n2nccc2n1 [Ex 23] | 16 nM
COc1cc(C2CCN(C(=O)CCN(C)C)CC2)c(C)cc1Nc1nc(Nc2ccccc2S(=O)(=O)C(C)C)n2nccc2n1 [Ex 25] | 22 nM
COc1cc(C2CCN(C(=O)CN3CCC3)CC2)c(C)cc1Nc1nc(Nc2ccccc2S(=O)(=O)C(C)C)n2nccc2n1 [Ex 20] | 26 nM
COc1cc(C2CCN(C(=O)[C@@H](C)NCCO)CC2)c(C)cc1Nc1nc(Nc2ccccc2S(=O)(=O)C(C)C)n2nccc2n1 [Ex 97] | 32 nM
CCN(CC)CCC(=O)N1CCC(c2cc(OC)c(Nc3nc(Nc4ccccc4S(=O)(=O)C(C)C)n4nccc4n3)cc2C)CC1 [Ex 99] | 35 nM
CC(C)S(=O)(=O)c1ccccc1Nc1nc(Nc2ccc3c(c2)CCNC3)nc2ccnn12 [Ex 41] | 85 nM
CC(C)S(=O)(=O)c1ccccc1Nc1nc(Nc2ccc(C3CCNCC3)cc2)nc2ccnn12 [Ex 37] | 130 nM
Cc1cc(C2CCN(CCS(C)(=O)=O)CC2)ccc1Nc1nc(Nc2ccccc2S(=O)(=O)C(C)C)n2nccc2n1 [Ex 46] | 31 nM
COc1cc(C2CCN(C(=O)CN3CC(O)C3)CC2)c(C)cc1Nc1nc(Nc2ccccc2S(=O)(=O)C(C)C)n2nccc2n1 [Ex 59] | 193 nM
COc1cc(C2CCN(C(=O)C3(N)CC3)CC2)c(C)cc1Nc1nc(Nc2ccccc2S(=O)(=O)C(C)C)n2nccc2n1 [Ex 18] | 39 nM
COc1cc(C2CCN(C(=O)CN)CC2)c(C)cc1Nc1nc(Nc2ccccc2S(=O)(=O)C(C)C)n2nccc2n1 [Ex 68] | 17 nM
COc1cc(C2CCN(C(=O)[C@H]3C[C@@H](O)CN3)CC2)c(C)cc1Nc1nc(Nc2ccccc2S(=O)(=O)C(C)C)n2nccc2n1 [Ex 56] | 79 nM
COc1cc(C2CCN(C(=O)CNC(C)(C)C)CC2)c(C)cc1Nc1nc(Nc2ccccc2S(=O)(=O)C(C)C)n2nccc2n1 [Ex 63] | 53 nM
CC(C)S(=O)(=O)c1ccccc1Nc1nc(Nc2ccc(C3CCN(CCC(N)=O)CC3)cc2)nc2ccnn12 [Ex 92] | 130 nM
COc1cc(C2CCN(C(=O)CCCN3CCCC3)CC2)c(C)cc1Nc1nc(Nc2ccccc2S(=O)(=O)C(C)C)n2nccc2n1 [Ex 100] | 33 nM
COc1cc(C2CCN(C3CCSCC3)CC2)c(C)cc1Nc1nc(Nc2ccccc2S(=O)(=O)C(C)C)n2nccc2n1 [Ex 84] | 25 nM
CNCCC(=O)N1CCC(c2cc(OC)c(Nc3nc(Nc4ccccc4S(=O)(=O)C(C)C)n4nccc4n3)cc2C)CC1 [Ex 19] | 68 nM

SMILES | IC50
COc1cc(C2CCN(C(=O)CN3CCOCC3)CC2)c(C)cc1Nc1nc(Nc2ccccc2S(=O)(=O)C(C)C)n2nccc2n1 [Ex 88] | 47 nM
COc1cc(C2CCN(C(=O)[C@H](C)N3CCCC3)CC2)c(C)cc1Nc1nc(Nc2ccccc2S(=O)(=O)C(C)C)n2nccc2n1 [Ex 80] | 33 nM
COc1cc(C2CCN(CC3CC3)CC2)c(C)cc1Nc1nc(Nc2ccccc2S(=O)(=O)C(C)C)n2nccc2n1 [Ex 8] | 43 nM
Cc1cc(C2CCNCC2)c(Cl)cc1Nc1nc(Nc2ccccc2S(=O)(=O)C(C)C)n2nccc2n1 [Ex 11] | 1400 nM
COc1cc(C2CCN(C(=O)C3COCCN3)CC2)c(C)cc1Nc1nc(Nc2ccccc2S(=O)(=O)C(C)C)n2nccc2n1 (stereo not shown) [Ex 32] | 29 nM
CCCNCC(=O)N1CCC(c2cc(OC)c(Nc3nc(Nc4ccccc4S(=O)(=O)C(C)C)n4nccc4n3)cc2C)CC1 [Ex 103] | 16 nM
CNC1(C(=O)N2CCC(c3cc(OC)c(Nc4nc(Nc5ccccc5S(=O)(=O)C(C)C)n5nccc5n4)cc3C)CC2)CC1 [Ex 26] | 25 nM
COc1cc(C2CCN(C(=O)CN3CC[C@@H](O)C3)CC2)c(C)cc1Nc1nc(Nc2ccccc2S(=O)(=O)C(C)C)n2nccc2n1 [Ex 60] | 31 nM
CNC(=O)CN1CCC(c2cc(OC)c(Nc3nc(Nc4ccccc4S(=O)(=O)C(C)C)n4nccc4n3)cc2C)CC1 [Ex 12] | 28 nM
COc1cc(C2CCN(C(=O)CN3CC[C@H](F)C3)CC2)c(C)cc1Nc1nc(Nc2ccccc2S(=O)(=O)C(C)C)n2nccc2n1 [Ex 76] | 75 nM
COc1cc(C2CCN(C(=O)[C@H](C)N3CC[C@H](O)C3)CC2)c(C)cc1Nc1nc(Nc2ccccc2S(=O)(=O)C(C)C)n2nccc2n1 [Ex 78] | 36 nM
CCNC1(C(=O)N2CCC(c3cc(OC)c(Nc4nc(Nc5ccccc5S(=O)(=O)C(C)C)n5nccc5n4)cc3C)CC2)CC1 [Ex 22] | 23 nM
CCNCC(=O)N1CCC(c2cc(OC)c(Nc3nc(Nc4ccccc4S(=O)(=O)C(C)C)n4nccc4n3)cc2C)CC1 [Ex 105] | 15 nM
COc1cc(C2CCN(C(=O)C(C)(CO)CO)CC2)c(C)cc1Nc1nc(Nc2ccccc2S(=O)(=O)C(C)C)n2nccc2n1 [Ex 106] | 16 nM
COc1cc(C2CCN(C(=O)[C@H]3COCCN3)CC2)c(C)cc1Nc1nc(Nc2ccccc2S(=O)(=O)C(C)C)n2nccc2n1 [Ex 70, (R)-(4-(4-(4-(2-(isopropylsulfonyl)phenylamino)pyrazolo[1,5-a][1,3,5]triazin-2-ylamino)-5-methoxy-2-methylphenyl)piperidin-1-yl)(morpholin-3-yl)methanone] | 35 nM
COc1cc(C2CCN(C(=O)CCCN3CCOCC3)CC2)c(C)cc1Nc1nc(Nc2ccccc2S(=O)(=O)C(C)C)n2nccc2n1 [Ex 101] | 31 nM
COc1cc(C2CCN(C(=O)[C@H](C)N(C)CCO)CC2)c(C)cc1Nc1nc(Nc2ccccc2S(=O)(=O)C(C)C)n2nccc2n1 [Ex 95] | 22 nM
COc1cc(C2CCN(C(=O)[C@@H](C)N3CCC3)CC2)c(C)cc1Nc1nc(Nc2ccccc2S(=O)(=O)C(C)C)n2nccc2n1 [Ex 81] | 26 nM
Cc1cc(C2CCN(C(=O)CCN(C)C)CC2)ccc1Nc1nc(Nc2ccccc2S(=O)(=O)C(C)C)n2nccc2n1 [Ex 49] | 129 nM
CN[C@@H](C)C(=O)N1CCC(c2cc(OC)c(Nc3nc(Nc4ccccc4S(=O)(=O)C(C)C)n4nccc4n3)cc2C)CC1 [Ex 24] | 21 nM
COc1cc(C2CCN(C(=O)[C@@H]3C[C@@H](O)CN3C)CC2)c(C)cc1Nc1nc(Nc2ccccc2S(=O)(=O)C(C)C)n2nccc2n1 [Ex 50] | 52 nM
COc1cc(C2CCN(C(=O)[C@H](C)N)CC2)c(C)cc1Nc1nc(Nc2ccccc2S(=O)(=O)C(C)C)n2nccc2n1 [Ex 67] | 40 nM
COc1cc(C2CCOCC2)c(C)cc1Nc1nc(Nc2ccccc2S(=O)(=O)C(C)C)n2nccc2n1 [Ex 10] | 138 nM
COc1cc(C2CCN(C(=O)C3CCCN3C)CC2)c(C)cc1Nc1nc(Nc2ccccc2S(=O)(=O)C(C)C)n2nccc2n1 (stereo not shown) [Ex 34] | 25 nM
COc1cc(C2CCN(C(=O)CO)CC2)c(C)cc1Nc1nc(Nc2ccccc2S(=O)(=O)C(C)C)n2nccc2n1 [Ex 73] | 40 nM
Cc1cc(CN2CCC(c3cc(OC(C)C)c(Nc4nc(Nc5ccccc5S(=O)(=O)C(C)C)n5nccc5n4)cc3C)CC2)[nH]n1 [Ex 5] | 140 nM
